In EP0533056A2, “Substituted aminopropanes, process for their preparation and their use as antimycotic agents” (HOECHST AKTIENGESELLSCHAFT, priority 1991, dated 1993):

Experiments:
[1] = system: Phospholipase von Candida albicans; experiment: Inhibition of released exoenzymes (phospholipase) of Candida albicans blastoconidia, egg-yolk agar plate, turbidity halo; type: cell-based; conditions: Candida albicans Stamm 200/175, in vitro
Experimental: Zur Feststellung der Enzymhemmung wurde eine Suspension von Candida albicans Blastokonidien (Stamm 200/175), wobei die Keimdichte photometrisch auf eine Extinktion von 0,5 (500 nm) eingestellt war, mit Präparatelösung bzw. zur Kontrolle mit Lösungsmittellösung vermischt und zwar • a) 100 µl Präparatelösung (Suspension) • + 900 µl Keimsuspension • b) 100 µl Lösungsmittel • + 900 µl Keimsuspension Jeweils 5 µl der 30 min bei 21 ° C inkubierten Blastokonidiensuspension wurden auf eine Agarplatte (Sabourand Agar mit Zusatz von 8 % Eigelb, 1 m NaCI, 5 mM CaC12) aufgetropft.
Die so beimpfte Platte wurde 3 Tage bei 37 ° C bebrütet.
Die Auswertung erfolgte derart, daß • 1. der Durchmesser (mm) der Candida albicans-Kolonie (behandelt und unbehandelt) sowie • 2. der Gasamtdurchmesser von Kolonie und Trübungshof, welcher durch Exoenzyme verursacht wurde (behandelt und unbehandelt), bestimmt wurde.
Aus der Bestimmung des Quotienten von Präparate- und Kontrollgruppe ergab sich ein Wert, der als Maß für die Enzymaktivität anzusehen war.

[2] = system: Trichophyton mentagrophytes; experiment: Percent killing of Trichophyton mentagrophytes in vitro; type: cell-based; conditions: nach 14 h in aqua dest., read-out: %-Abtötung von Trichophyton mentagrophytes
From the text: Die pilzabtötende, antimykotische Wirksamkeit der Verbindungen wurde an einigen Beispielen (s. Tabelle 3) anhand der prozentualen Abtötung von Trichophyton mentagrophytes in vitro verifiziert (Standardpräparat Rilopirox als Vergleichssubstanz).

[3] = system: Phospholipase aus Leberzellen; conditions: in-vitro-Test, literature (Pappu A.S. et al., Biochem. Pharmacol. 34, 521-24, 1985); cited from earlier work

| SMILES | % Hemmung der Phospholipase ([1]; Konzentration 10 μm/ml) [%] | % Hemmung der Phospholipase ([1]; Konzentration 50 μm/ml) [%] | % Hemmung der Phospholipase ([1]; Konzentration 100 μm/ml) [%] | % Hemmung der Phospholipase ([1]; Konzentration 5 μm/ml) [%] | killing at 40 µg/mL [2] [%] | killing at 80 µg/mL [2] [%] | % Hemmung der Phospholipase ([1]; Konzentration 1 μm/ml) [%] | Hemmwirkung gegenüber Phospholipase aus Leberzellen [3] |
| --- | --- | --- | --- | --- | --- | --- | --- | --- |
| CCCCCCCOc1ccc(OCC(O)(CNCCC(c2ccccc2)c2ccccc2)C(C)(C)C)cc1 (centres unmarked) [1.22] | 10 | 100 | 100 | – | – | – | – | – |
| CCCCCCCOc1ccc(OCC(O)(CNC(C)C)C(C)(C)C)cc1 (centres unmarked) [1.24] | 100 | 100 | 100 | 100 | – | – | – | – |
| Cc1cc(COc2ccc(Oc3ccc(Cl)cc3)cc2)n(O)c(=O)c1 [Rilopirox, reference compound] | – | – | – | – | 100 | 100 | – | – |
| CCCCCCCOc1ccc(OCC(O)(CNCCCC)C(C)(C)C)cc1 (centres unmarked) [1.18] | 100 | 100 | 100 | 100 | – | – | – | – |
| CCCCCCCOc1ccc(OCC(O)(CNCc2ccc(OC)c(OC)c2)C(C)(C)C)cc1 (centres unmarked) [1.21] | 100 | 100 | 100 | – | – | – | – | – |
| CC1(C)CC(NCC(O)(COc2ccc(Oc3ccccc3)cc2)C(C)(C)C)CC(C)(C)N1 (centres unmarked) [1.31] | 100 | 100 | 100 | 7.7 | – | – | – | – |
| CC(C)(C)CC(C)(C)c1ccc(OCC(O)(CNCc2ccc(Cl)cc2Cl)C(C)(C)C)cc1 (centres unmarked) [1.48] | 100 | 100 | 100 | 100 | – | – | 14.3 | – |
| CC(C)NCC(O)(COc1ccc(Cl)cc1Cl)C(C)(C)C (centres unmarked) [1.7, 2-t-Butyl-1-(2,4-dichlorphenoxy)-3-isopropyl-amino-2-propanol] | 20 | – | 100 | – | – | – | – | – |
| CC(C)(C)NCC(O)(COc1ccc(OCc2ccccc2)cc1)C(C)(C)C (centres unmarked) [1.5] | – | 100 | 100 | – | – | – | – | – |
| CCCCCCCCCCCCNCC(O)(COc1ccc(Oc2ccccc2)cc1)C(C)(C)C (centres unmarked) [1.34] | 100 | 100 | 100 | 33.3 | – | – | 6.3 | – |
| CCCCCCCCCCCCNCC(O)(COc1ccc(OCCCCCCC)cc1)C(C)(C)C (centres unmarked) [1.23] | 100 | 100 | 100 | 100 | – | – | – | – |
| CCCCNCC(O)(COc1ccc(C(C)(C)C)cc1)C(C)(C)C (centres unmarked) [1.11] | – | – | 100 | – | – | – | – | – |
| CCCCCCCOc1ccc(OCC(O)(CNCc2ccccc2)C(C)(C)C)cc1 (centres unmarked) [1.19, 3-N-Benzylamino-2-t-butyl-1-(4-heptyloxy-phenyl-oxy)-2-propanol] | 100 | 100 | 100 | 100 | – | – | – | – |
| CCCCNCC(O)(COc1ccc(C(C)(C)C)cc1)c1ccc(-c2ccccc2)cc1 (centres unmarked) [1.15] | 100 | 100 | 100 | 100 | – | – | – | – |
| CCCCCCCCCCCCNCC(O)(COc1ccc(C(C)(C)C)cc1)c1ccc(-c2ccccc2)cc1 (centres unmarked) [1.17] | 100 | 100 | 100 | 100 | 97.8 | 100 | – | – |
| CCCCCCCCCCCCNCC(O)(COc1ccc(OCCCCCCC)cc1)c1ccccc1 (centres unmarked) [1.53] | 100 | 100 | 100 | 100 | – | – | – | – |
| CC(C)NCC(O)COc1cccc2ccccc12 (centres unmarked) [Propranolol, reference compound] | – | – | 30 | – | – | – | – | wirksamste Substanz |
